Molecular target: T1, Carbonic anhydrase (Saccharomyces cerevisiae S288c, UniProt P53615)
T1 sequence (P53615 whole entry): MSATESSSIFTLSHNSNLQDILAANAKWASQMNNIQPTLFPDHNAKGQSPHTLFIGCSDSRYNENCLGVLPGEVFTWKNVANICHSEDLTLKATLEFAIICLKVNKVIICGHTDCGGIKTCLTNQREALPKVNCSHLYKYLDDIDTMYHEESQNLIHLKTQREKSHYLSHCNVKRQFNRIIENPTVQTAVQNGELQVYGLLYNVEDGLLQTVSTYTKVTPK
Description: Inhibition of Saccharomyces cerevisiae recombinant CA expressed in Escherichia coli by stopped-flow CO2 hydrase assay

Row | Structure (SMILES) | Ki
1 | Nc1nnc(S(N)(=O)=O)s1 | 447 nM
2 | Nc1ccc(S(=O)(=O)NCc2ccc(S(N)(=O)=O)cc2)cc1 | 166 nM
3 | Nc1cc(Cl)c(S(N)(=O)=O)cc1S(N)(=O)=O | 169 nM
4 | Nc1ccc(S(N)(=O)=O)cc1I | 976 nM
5 | Nc1ccc(S(=O)(=O)Nc2nnc(S(N)(=O)=O)s2)cc1 | 124 nM
6 | NS(=O)(=O)c1nnc(-c2ccccc2Cl)s1 | 565 nM
7 | Nc1nccc(Nc2ccc(S(N)(=O)=O)cc2)n1 | 15.1 nM
8 | Nc1ccc(S(N)(=O)=O)cc1Br | 248 nM
9 | NS(=O)(=O)c1ccc(CCO)cc1 | 7540 nM
10 | Nc1ccc(S(N)(=O)=O)cc1F | 389 nM
11 | NS(=O)(=O)c1ccc(CO)cc1 | 8970 nM
12 | NCCc1ccc(S(N)(=O)=O)cc1 | 163 nM
13 | Nc1ccc(S(N)(=O)=O)cc1Cl | 457 nM
14 | Nc1ccc(S(=O)(=O)NCCc2ccc(S(N)(=O)=O)cc2)cc1 | 154 nM
15 | NS(=O)(=O)c1ccc(S(=O)(=O)Nc2cccc3c(Cl)c[nH]c23)cc1 | 133 nM
16 | Nc1cc(C(F)(F)F)c(S(N)(=O)=O)cc1S(N)(=O)=O [2,4-DISULFAMYLTRIFLUOROMETHYLANILINE] | 223 nM
17 | NS(=O)(=O)c1nnc(NS(=O)(=O)c2ccccc2)s1 [BENZOLAMIDE] | 111 nM
18 | CCN[C@H]1CN(CCCOC)S(=O)(=O)c2sc(S(N)(=O)=O)cc21 [BRINZOLAMIDE] | 114 nM
19 | NS(=O)(=O)c1ccc(C(=O)O)cc1 [CARZENIDE] | 14500 nM
20 | Cc1ccc(-c2cc(C(F)(F)F)nn2-c2ccc(S(N)(=O)=O)cc2)cc1 [CELECOXIB] | 108 nM
21 | NCc1ccc(S(N)(=O)=O)cc1 [MAFENIDE] | 433 nM
22 | Cc1ccc(S(N)(=O)=O)cc1 [P-TOLUENESULFONAMIDE] | 16100 nM
23 | O=C1NS(=O)(=O)c2ccccc21 [SACCHARIN] | 12500 nM
24 | Nc1ccc(S(N)(=O)=O)cc1 [SULFANILAMIDE] | 18500 nM
25 | CC1(C)O[C@@H]2[C@@H](CO[C@@]3(COS(N)(=O)=O)OC(C)(C)O[C@@H]23)O1 [TOPIRAMATE] | 110 nM

— ChEMBL document CHEMBL1143347, “Carbonic anhydrase inhibitors: inhibition of the beta-class enzyme from the yeast Saccharomyces cerevisiae with sulfonamides and sulfamates” (Bioorg Med Chem, 2009)
